Test results as given in patent publication US8937154B2, “Stabilized therapeutic small helical antiviral peptides” (priority 2006, dated 2015).

Legend:
[1] = molecular target: T1, C-terminal CA (C-CA) of capsid (Human immunodeficiency virus type 1 group M subtype B, UniProt P04591); settings: estimated, read-out: dissociation constant (Kd); cited from earlier work
T1 construct: targeting the C-terminal CA (C-CA) of capsid

[2] = Circular dichroism, secondary structure in solution; type: physicochemical; settings: 20° C., Tris-HCl buffer pH 8.0, 1-15% acetonitrile
Description: We used circular dichroism (CD) to characterize the secondary structure of NYAD-1 and CAI in the uncomplexed state in solution. CD spectra were obtained on a Jasco J-715 Spectropolarimeter (Jasco Inc.) at 20° C. using the standard measurement parameters in Tris-HCl buffer (20 mM Tris, pH 8.0) in the presence of 1-15% (v/v) acetonitrile at a final concentration of 125-500 μM. In all the samples, the final concentrations of peptides and salt were always the same, and the spectra were corrected by subtracting the CD spectra of the appropriate reference solvent. Percent α-helix was calculated from molar ellipticity value at 222 nm.
The CD spectra were measured at 25° C. in 1×PBS in the presence of 1-20% (v/v) acetonitrile at a final concentration of peptide of 100 μM.
We used CD spectroscopy to determine the secondary structure characteristics of the stapled peptide NYAD-36. The corresponding linear peptide, NYAD-41, was used as control.

Question: With ITFEDLLDYYGP [CAI] as the sequence, how does the Kd [1] read?
Answer: ~15 µM

Question: What about the “secondary structure in solution by CD” value [2] of the same sequence?
Answer: random coil structure
